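Five concentrations, 48 hours, 96-well plates. At the GI50, growth is halved. At the TGI there is no net growth.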
How the values were obtained:
Experiment in all cases: DTP human tumour cell line panel, 48 h
[1] = test system: CCRF-CEM leukemia
[2] = test system: A549 NSCLC
[3] = test system: OVCAR-4 ovarian
[4] = test system: BT-549 breast
[5] = test system: U251 CNS
[6] = test system: HCT-15 colon
[7] = test system: MOLT-4 leukemia
[8] = test system: PC-3 prostate
[9] = test system: UACC-257 melanoma
[10] = test system: NCI-H522 lung
[11] = test system: KM12 colon
[12] = test system: ACHN renal
[13] = test system: NCI-H23 lung
[14] = test system: SR leukemia
[15] = test system: MDA-MB-435
[16] = test system: RPMI-8226 leukemia
[17] = test system: NCI-H460 lung
[18] = test system: RXF 393 renal
[19] = test system: SK-MEL-2 melanoma
[20] = test system: NCI/ADR-RES ovarian
[21] = test system: TK-10 renal
[22] = test system: SNB-19 CNS
[23] = test system: HCT-116 colon
[24] = test system: HOP-92 NSCLC
[25] = test system: OVCAR-8 ovarian
[26] = test system: SW-620 colon
[27] = test system: NCI-H226 lung
[28] = test system: IGROV1 ovarian
[29] = test system: OVCAR-3 ovarian
[30] = test system: SK-MEL-5 melanoma
[31] = test system: SF-295 CNS
[32] = test system: SF-539 CNS
[33] = test system: SNB-75 CNS
[34] = test system: UO-31 renal
[35] = test system: HT29 colon
[36] = test system: MDA-MB-231 breast
[37] = test system: HS 578T breast
[38] = test system: CAKI-1 renal
[39] = test system: MCF7 breast
[40] = test system: K-562 leukemia
[41] = test system: HOP-62 NSCLC
[42] = test system: OVCAR-5 ovarian
[43] = test system: SF-268 CNS
[44] = test system: MALME-3M melanoma
[45] = test system: M14 melanoma
[46] = test system: UACC-62 melanoma
[47] = test system: COLO 205 colon
[48] = test system: 786-0 renal
[49] = test system: LOX IMVI melanoma
[50] = test system: EKVX NSCLC
[51] = test system: HL-60(TB) leukemia
[52] = test system: SK-MEL-28 melanoma
[53] = test system: HCC-2998 colon
[54] = test system: T-47D breast
[55] = test system: A498 renal
[56] = test system: DU-145 prostate
[57] = test system: SK-OV-3 ovarian
[58] = test system: SN12C renal

Cc1[nH]c(-c2cc(N)ccc2Cl)c2c1C(=O)CCCC2
GI50 [1]: 1.06 µM
TGI [1]: > 100 µM
GI50 [2]: 7.91 µM
TGI [2]: > 100 µM
GI50 [3]: 2.95 µM
TGI [3]: > 100 µM
GI50 [4]: 5.89 µM
TGI [4]: > 100 µM
GI50 [5]: 5.75 µM
TGI [5]: > 100 µM
GI50 [6]: 3.3 µM
TGI [6]: > 100 µM
GI50 [7]: 8.32 µM
TGI [7]: > 100 µM
GI50 [8]: 3.5 µM
TGI [8]: > 100 µM
GI50 [9]: 3.49 µM
TGI [9]: > 100 µM
GI50 [10]: 1.13 µM
TGI [10]: 15.2 µM
GI50 [11]: 5.47 µM
TGI [11]: > 100 µM
GI50 [12]: 3.42 µM
TGI [12]: > 100 µM
GI50 [13]: 5.06 µM
TGI [13]: 64.6 µM
GI50 [14]: 2.64 µM
TGI [14]: > 100 µM
GI50 [15]: 3.24 µM
TGI [15]: 19.5 µM
GI50 [16]: 3.63 µM
TGI [16]: 44.2 µM
GI50 [17]: 10.3 µM
TGI [17]: > 100 µM
GI50 [18]: 2.06 µM
TGI [18]: 6.06 µM
GI50 [19]: 7.65 µM
TGI [19]: 60.7 µM
GI50 [20]: 4.78 µM
TGI [20]: > 100 µM
GI50 [21]: 2.19 µM
TGI [21]: 31 µM
GI50 [22]: 4.53 µM
TGI [22]: > 100 µM
GI50 [23]: 3.92 µM
TGI [23]: > 100 µM
GI50 [24]: 1.93 µM
TGI [24]: 63.8 µM
GI50 [25]: 3.26 µM
TGI [25]: > 100 µM
GI50 [26]: 12.1 µM
TGI [26]: 55.6 µM
GI50 [27]: 3.37 µM
TGI [27]: > 100 µM
GI50 [28]: 2.58 µM
TGI [28]: 29.1 µM
GI50 [29]: 3.62 µM
TGI [29]: 32.5 µM
GI50 [30]: 6.15 µM
TGI [30]: 30.4 µM
GI50 [31]: 8.01 µM
TGI [31]: > 100 µM
GI50 [32]: 3.13 µM
TGI [32]: 26.7 µM
GI50 [33]: 0.183 µM
TGI [33]: 5.2 µM
GI50 [34]: 0.477 µM
TGI [34]: 15.1 µM
GI50 [35]: 2.7 µM
TGI [35]: > 100 µM
GI50 [36]: 3.82 µM
TGI [36]: > 100 µM
GI50 [37]: 2.11 µM
TGI [37]: 17.8 µM
GI50 [38]: 0.702 µM
TGI [38]: 17.9 µM
GI50 [39]: 2.32 µM
TGI [39]: > 100 µM
GI50 [40]: 3.59 µM
TGI [40]: > 100 µM
GI50 [41]: 2.29 µM
TGI [41]: > 100 µM
GI50 [42]: 6.54 µM
TGI [42]: > 100 µM
GI50 [43]: 7.99 µM
TGI [43]: > 100 µM
GI50 [44]: 2.12 µM
TGI [44]: 9.94 µM
GI50 [45]: 4.37 µM
TGI [45]: > 100 µM
GI50 [46]: 0.809 µM
TGI [46]: 7.2 µM
GI50 [47]: 3.91 µM
TGI [47]: > 100 µM
GI50 [48]: 3.24 µM
TGI [48]: > 100 µM
GI50 [49]: 2.25 µM
TGI [49]: 7.39 µM
GI50 [50]: 6.09 µM
TGI [50]: > 100 µM
GI50 [51]: 2.03 µM
TGI [51]: 6.79 µM
GI50 [52]: 6.5 µM
TGI [52]: > 100 µM
GI50 [53]: 3.39 µM
TGI [53]: 16.5 µM
GI50 [54]: 3.47 µM
TGI [54]: > 100 µM
GI50 [55]: 3.22 µM
TGI [55]: 9.84 µM
GI50 [56]: 13.1 µM
TGI [56]: > 100 µM
GI50 [57]: 3.56 µM
TGI [57]: 36.6 µM
GI50 [58]: 5.01 µM
TGI [58]: > 100 µM

N/C(=N\OC(=O)c1ccccc1)C(Cc1ccccc1)C(=O)NOC(=O)c1ccccc1 (configuration not stated)
GI50 [1]: 2.18 µM
TGI [1]: 6.07 µM
GI50 [2]: 1.52 µM
TGI [2]: 3.22 µM
GI50 [3]: 4.38 µM
TGI [3]: 27.3 µM
GI50 [4]: 4.26 µM
TGI [4]: 16.5 µM
GI50 [5]: 1.36 µM
TGI [5]: 2.87 µM
GI50 [6]: 2.21 µM
TGI [6]: 10.5 µM
GI50 [7]: 2.21 µM
TGI [7]: 5.85 µM
GI50 [8]: 2.62 µM
TGI [8]: 7.2 µM
GI50 [9]: 5.32 µM
TGI [9]: 18.5 µM
GI50 [10]: 1.7 µM
TGI [10]: 3.47 µM
GI50 [11]: 2.19 µM
TGI [11]: 5.28 µM
GI50 [12]: 1.66 µM
TGI [12]: 3.58 µM
GI50 [13]: 3.54 µM
TGI [13]: 17.4 µM
GI50 [14]: 1.08 µM
TGI [14]: 3.68 µM
GI50 [15]: 1.76 µM
TGI [15]: 3.9 µM
GI50 [16]: 1.74 µM
TGI [16]: 4.95 µM
GI50 [17]: 1.76 µM
TGI [17]: 3.71 µM
GI50 [18]: 1.97 µM
TGI [18]: 5.6 µM
GI50 [19]: 2.16 µM
TGI [19]: 4.17 µM
GI50 [20]: 2.72 µM
TGI [20]: 11.3 µM
GI50 [21]: 2.12 µM
TGI [21]: 3.76 µM
GI50 [22]: 3.55 µM
TGI [22]: 15.6 µM
GI50 [23]: 1.66 µM
TGI [23]: 3.38 µM
GI50 [24]: 1.84 µM
TGI [24]: 3.63 µM
GI50 [25]: 2.11 µM
TGI [25]: 6.53 µM
GI50 [26]: 3.02 µM
TGI [26]: 13.8 µM
GI50 [27]: 3.51 µM
TGI [27]: 14 µM
GI50 [28]: 0.43 µM
TGI [28]: 2.09 µM
GI50 [29]: 1.8 µM
TGI [29]: 4.1 µM
GI50 [30]: 2.72 µM
TGI [30]: 9.03 µM
GI50 [31]: 1.38 µM
TGI [31]: 3.1 µM
GI50 [32]: 1.84 µM
TGI [32]: 3.99 µM
GI50 [33]: 1.62 µM
TGI [33]: 3.41 µM
GI50 [34]: 1.45 µM
TGI [34]: 3.07 µM
GI50 [35]: 5.24 µM
TGI [35]: 18.5 µM
GI50 [36]: 4.6 µM
TGI [36]: 18.1 µM
GI50 [37]: 0.952 µM
TGI [37]: 3.27 µM
GI50 [38]: 1.28 µM
TGI [38]: 2.97 µM
GI50 [39]: 2.78 µM
TGI [39]: 10.3 µM
GI50 [40]: 1.05 µM
TGI [40]: 3.42 µM
GI50 [41]: 1.37 µM
TGI [41]: 2.83 µM
GI50 [42]: 9.1 µM
TGI [42]: 24.3 µM
GI50 [43]: 1.64 µM
TGI [43]: 3.33 µM
GI50 [44]: 3.47 µM
TGI [44]: 14.8 µM
GI50 [45]: 3.12 µM
TGI [45]: 10.8 µM
GI50 [46]: 2.49 µM
TGI [46]: 7.53 µM
GI50 [47]: 3.94 µM
TGI [47]: 14.7 µM
GI50 [48]: 3.04 µM
TGI [48]: 8 µM
GI50 [49]: 1.46 µM
TGI [49]: 3.68 µM
GI50 [50]: 2.23 µM
TGI [50]: 6.52 µM
GI50 [51]: 2.35 µM
TGI [51]: 6.56 µM
GI50 [52]: 7.76 µM
TGI [52]: 22.6 µM
GI50 [53]: 5.4 µM
TGI [53]: 19.7 µM
GI50 [54]: 3.18 µM
TGI [54]: 15.8 µM
GI50 [55]: 11 µM
TGI [55]: 23.2 µM
GI50 [56]: 1.58 µM
TGI [56]: 3.07 µM
GI50 [57]: 5.48 µM
TGI [57]: 18.2 µM
GI50 [58]: 3.39 µM
TGI [58]: 25.4 µM

Reference: PubChem BioAssay (NCI)
